In publication PMC9841431 (Nucleic Acids Research, 2022):
≈ marks a conversion by molar mass, not a printed value. Where two headings read alike, the source gives them in different places.

Assays:
in vitro = conditions: African green monkey, VERO cells CC50, 72 h exposure, ATP readout
M. tuberculosis H37Rv = assay: microbe, parasite or virus in culture; type: cell-based; conditions: for MIC90 / MIC: Mycobacterium tuberculosis, H37RV, read-out: M. tuberculosis MIC90
M. bovis BCG cultures = type: cell-based, Mycobacterium bovis BCG
Vero cells = conditions: CC50 (Vero) / MIC90 (replicating M. tuberculosis H37Rv)
[1] = test system: M. tuberculosis H37Rv in infected mouse Bone Marrow-Derived Macrophages; type: cell-based, Mycobacterium tuberculosis; conditions: BMDM; for Reduction of the burden of intracellular bacteria: 32 × MIC
[2] = test system: non-replicating M. tuberculosis H37Rv; type: cell-based, Mycobacterium tuberculosis; conditions: MBC90 NR / MIC90 replicating
[3] = test system: sigH and mrx2 expression in M. tuberculosis H37Rv; assay: sigH and mrx2 transcriptional levels by qRT-PCR upon compound exposure; type: cell-based, Mycobacterium tuberculosis; conditions: 1×, 2×, 4×, 8× MIC90; different time points
Mrx2 mutants = type: biochemical, M. tuberculosis; conditions: enzyme kinetic assay
Mrx2WT = Mrx2WT (Mycobacterium tuberculosis, UniProt O53193); assay: Mrx2 enzyme kinetic assay; type: biochemical, M. tuberculosis; conditions: 10 μM compound, 30 μM enzyme, absorbance at 412 nm
Mrx2WT, sequence (O53193 whole entry): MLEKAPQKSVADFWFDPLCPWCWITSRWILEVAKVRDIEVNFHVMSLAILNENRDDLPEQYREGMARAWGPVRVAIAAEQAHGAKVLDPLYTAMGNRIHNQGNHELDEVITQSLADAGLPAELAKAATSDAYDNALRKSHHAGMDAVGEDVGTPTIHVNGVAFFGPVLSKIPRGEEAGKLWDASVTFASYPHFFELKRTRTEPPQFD

Molecule: COc1cc2ccc3oc([N+](=O)[O-])cc3c2cc1OC [nNF-C8, 7,8-Dimethoxy-2-nitronaphtho[2,1-b]furan]
- CC50 (in vitro): 0.4 mg/L (≈ 1.46 µM)
- MIC90 (M. tuberculosis H37Rv): 0.125 mg/L (≈ 0.457 µM)

Molecule: COc1ccc2c(ccc3oc([N+](=O)[O-])c(C)c32)c1 [nNF-C7, 7-Methoxy-1-methyl-2-nitronaphtho[2,1-b]furan]
- CC50 (in vitro): 67.5 mg/L (≈ 262 µM)
- MIC90 (M. tuberculosis H37Rv): 4 mg/L (≈ 15.5 µM)

Molecule: COc1ccc2ccc3oc([N+](=O)[O-])cc3c2c1Br [nNF-C18, 9-Bromo-8-methoxy-2-nitronaphtho[2,1-b]furan]
- CC50 (in vitro): 2.2 mg/L (≈ 6.83 µM)
- MIC90 (M. tuberculosis H37Rv): 0.25 mg/L (≈ 0.776 µM)

Molecule: 1-Butyl-2-nitronaphtho[2,1-b]furan [nNF-C11]
- MIC90 R[…]. tuberculosis μM (median) (M. tuberculosis H37Rv; REMA, H37Rv, median): 32.89 µM
- MIC90 R[…]. tuberculosis μg/ml (median) (M. tuberculosis H37Rv; REMA, H37Rv, median): 8 µg/mL
- MIC90 R[…]. tuberculosis μg/ml (range) (M. tuberculosis H37Rv; REMA, H37Rv, range): 8 to 16 µg/mL
- M. tuberculosis MIC90 (M. tuberculosis H37Rv; value used for SI in Table 2): 8 mg/L

Molecule: CCc1c([N+](=O)[O-])oc2ccc3ccccc3c12 [nNF-C17, 1-Ethyl-2-nitronaphtho[2,1-b]furan]
- CC50 (in vitro): 55.1 mg/L (≈ 228 µM)
- MIC90 (M. tuberculosis H37Rv): 2 mg/L (≈ 8.29 µM)

Molecule: O=[N+]([O-])c1cn2c(n1)OC[C@@H](OCc1ccc(OC(F)(F)F)cc1)C2 [PA-824, Pretomanid, reference compound]
- NO release in treated M. bovis BCG cultures (M. bovis BCG cultures): significant NO release in a concentration dependent manner

Molecule: O=[N+]([O-])c1cc2c(ccc3c2ccc2cc([N+](=O)[O-])oc23)o1 [nNF-C1, 2,7-dinitronaphtho[1,2-b:6,5-b']difuran]
- MIC90 (M. tuberculosis H37Rv): 0.125 mg/L (≈ 0.419 µM)

Molecule: O=[N+]([O-])c1cc2c(ccc3cc(Br)ccc32)o1 [nNF-C6, 7-Bromo-2-nitronaphtho[2,1-b]furan]
- Selectivity index (SI) (Vero cells): 182.6
- MIC90 (M. tuberculosis H37Rv): 0.5 mg/L (≈ 1.71 µM)

Molecule: CO[C@H]1/C=C/O[C@@]2(C)Oc3c(C)c(O)c4c(O)c(c(/C=N/N5CCN(C)CC5)c(O)c4c3C2=O)NC(=O)/C(C)=C\C=C\[C@H](C)[C@H](O)[C@@H](C)[C@@H](O)[C@@H](C)[C@H](OC(C)=O)[C@@H]1C [RIF, Rifampicin, reference compound]
- Concentration needed to achieve a similar level (ca. 2 logs) of intracellular killing ([1]; 32 times its MIC): 0.32 μg/ml
- Selectivity index (SI) (Vero cells): 7824.1
- CC50 (in vitro): 78.2 mg/L (≈ 95 µM)
- MIC (M. tuberculosis H37Rv): 0.01 mg/L (≈ 0.0122 µM)

Molecule: Cc1c([N+](=O)[O-])oc2ccc3ccccc3c12 [nNF-C14, 1-Methyl-2-nitronaphtho[2,1-b]furan]
- Selectivity index (SI) (Vero cells): >50
- MIC90 (M. tuberculosis H37Rv): 2 mg/L (≈ 8.8 µM)

Molecule: CCCCc1c([N+](=O)[O-])oc2ccc3ccccc3c12 [nNF-C12, 1-Butyl-2-nitronaphtho[2,1-b]furan]
- CC50 (in vitro): 73.5 mg/L (≈ 273 µM)
- MIC90 (M. tuberculosis H37Rv): 4 mg/L (≈ 14.9 µM)

Molecule: N#Cc1ccc2c(ccc3oc([N+](=O)[O-])cc32)c1 [nNF-C5, 2-Nitronaphtho[2,1-b]furan-7-carbonitrile]
- CC50 (in vitro): 12.5 mg/L (≈ 52.5 µM)
- MIC90 (M. tuberculosis H37Rv): 0.25 mg/L (≈ 1.05 µM)

Molecule: COC(=O)c1ccc2c(ccc3oc([N+](=O)[O-])cc32)c1 [nNF-C4, Methyl 2-nitronaphtho[2,1-b]furan-7-carboxylate]
- Activity against non-replicating M. tuberculosis in the charcoal assay relative to MIC90 against replicating bacteria [2]: 4–8 times
- NO release in treated M. bovis BCG cultures (M. bovis BCG cultures): significant NO release in a concentration dependent manner
- Nitrite levels relative to nNF-C2 (M. bovis BCG cultures): ~4 times
- Reduction of the number of intracellular M. tuberculosis bacteria ([1]; 2 times of MIC90 (0.25 μg/ml)): ca. 2 logs
- Reduction of the burden of intracellular bacteria [1]: more than 4 logs
- MIC90 (M. tuberculosis H37Rv): 0.125 mg/L (≈ 0.461 µM)

Molecule: O=[N+]([O-])c1cc2c(ccc3c4cc([N+](=O)[O-])oc4ccc23)o1 [nNF-C3, 2,7-Dinitronaphtho[2,1-b:6,5-b']difuran]
- MIC (M. tuberculosis H37Rv): 1 mg/L (≈ 3.35 µM)

Molecule: COc1ccc2c(ccc3oc([N+](=O)[O-])cc32)c1 [nNF-C16, 7-Methoxy-2-nitronaphtho[2,1-b]furan]
- CC50 (in vitro): 0.3 mg/L (≈ 1.23 µM)
- MIC90 (M. tuberculosis H37Rv): 0.0625 mg/L (≈ 0.257 µM)

Molecule: O=[N+]([O-])c1cc2cc3ccc4oc([N+](=O)[O-])cc4c3cc2o1 [nNF-C2, 2,8-Dinitronaphtho[2,1-b:7,6-b']difuran]
- Induction of sigH and mrx2 expression [3]: time and concentration-dependant induction of both genes
- Activity against non-replicating M. tuberculosis in the charcoal assay relative to MIC90 against replicating bacteria [2]: 4–8 times
- Activity of Mrx2T25R, Mrx2S46R, Mrx2Y91S, Mrx2H140D and Mrx2R198G against the compound (Mrx2 mutants): only residual activity
- NO release in treated M. bovis BCG cultures (M. bovis BCG cultures): significant NO release in a concentration dependent manner
- Reduction of the number of intracellular M. tuberculosis bacteria ([1]; 4 times of MIC90 (0.25 μg/ml)): ca. 2 logs
- Reduction of the burden of intracellular bacteria [1]: more than 4 logs
- Metabolism of the compound by Mrx2WT (Mrx2WT): completely metabolized
- MIC90 (M. tuberculosis H37Rv): 0.0625 mg/L (≈ 0.21 µM)

Molecule: CCOC(=O)COc1ccc2ccc3oc([N+](=O)[O-])cc3c2c1 [nNF-C20, Ethyl 2-({2-nitronaphtho[2,1-b]furan-8-yl}oxy)acetate]
- CC50 (in vitro): 9.3 mg/L (≈ 29.5 µM)
- MIC (M. tuberculosis H37Rv): 0.25 mg/L (≈ 0.793 µM)
